Source: patent publication US5043165A, “Novel liposome composition for sustained release of steroidal drugs” (priority 1988, dated 1991)
Entries after “also recorded” stand apart in the source; their conditions may differ.

Experiments:
[1] = Intrathecal administration: drug in cranial and spinal compartments and cerebrospinal fluid; details: 50 ul, 20 mg/ml
[2] = Plasma pharmacokinetics of 14C-BDP after i.v. injection or intratracheal instillation; format: in vivo, male Sprague-Dawley rats; details: rat
Protocol: In order to determine the rate of absorption of the steroidal drug into the plasma after intratracheal administration, various formulations containing either the free steroid or steroid encapsulated in liposomes were prepared and tested.
The free drug control was administered intravenously to provide relative basis for measurement of bioavailability. […] The resulting plasma profiles, given in FIG. 1, illustrate the physiological removal of steroid from the blood circulation. […] As will be seen from FIG. 2, the rate of absorption of free steroid from lungs to the plasma is rapid and the physiological removal from the plasma follows the same course as that of the free drug. […] Thus, the rate of absorption from lungs to plasma of free steroid and steroid encapsulated in conventional liposomes is not much different and follows similar curve.
Plasma and lung levels of radiolabel were measured as previously described. The decrease in plasma concentration versus time following free drug administration was biphasic (FIG. 4).

[3] = TLC assay of lung samples for metabolism of BDP before absorption; format: in vivo, rats; details: thin layer chromatographic assay
[4] = Partition coefficient between octanol and phosphate buffer saline; format: physicochemical; details: pH 7.4
[5] = rat, in vivo
Source text: The resulting slopes and intercepts were used as estimates of the absorption rate constant (Ka) and the amount of drug in the lungs at zero time, respectively. […] These later values relate to the elimination of radiolabel already released from the liposomes and distributed to the lungs. The amount of drug in the lungs at time zero can be used to determine the amount of free drug in the formulation, since free drug is very rapidly absorbed from the lungs (Dose=free drug+amount in lungs at t=0). This amount also includes any liposome associated drug that was rapidly released ("burst" effect).
All studies were performed in male Sprague-Dawley rats weighing 250 to 450 g. After fasting for 16 hours, animals were anesthetized by i.m. injection of ketamine (25 mg/kg), xylazine (5 mg/kg) and acepromazine (0.5 mg/ml). During the procedure the animal's body temperature was maintained with a 37° C. heating pad. Additional anesthetic was administered as required, using half the original dose. A midline incision was made in the neck and the right jugular vein and left carotid artery were cannulated with short lengths of polyethylene tubing to which a 23 ga Luer stub adapter (Clay Adams #7565) and plastic 3-way stopcock (Argyle #173518) were attached. Blood samples (0.5-4 ml) were removed from the carotid arterial cannula after first flushing with fresh blood to clear the line. […]
Blood samples were removed at four time points during the study from each rat, centrifuged, and the serum was removed and stored frozen (-20°C.) until assayed. […] The homogenate was briefly centrifuged and measured aliquots of the supernate removed to Teflon-stoppered glass tubes which were stored at -20° C. or below until assayed.
The actual dose administered in each study was determined by measurement of duplicate dose control samples of the formulation which were delivered by the same apparatus used in dosing the animals.
In some studies, the plasma concentration of radiolabel was also measured over the course of the experiment.

[6] = in vivo; cited from earlier work
[7] = mouse, in vivo, iv
Protocol: The nonconventional steroidal liposome composition prepared according to Example III was administered intravenously and the ability of mouse organs to bind and/or take up the radiolabel was studied.
All experiments were carried out using groups of male ICR mice weighing approximately 25 grams (the weight of any individual mouse was not more than 10% different from the group mean weight). Doses of nonconventional liposomes containing beclomethosome dipropionate spiked according to Example III were administered to a mouse via a tail vein. At the end of the experimental period mice were lightly anesthesized with diethyl ether and a 1 ml blood sample was rapidly removed from the jugular vein with a heparinized syringe. […]
All organ and carcass samples were stored at -20° prior to analysis. […] Dried samples were analyzed for total ^14 C radioactivity by scintillation counting following combustion in a Packard Sample Oxidizer, Combustions were carried out in series, with the inclusion of appropriate blanks. A duplicate sample from every third animal was analyzed to monitor the combustion reproducibility. […] Total radioactivity in liver, spleen, carcass and 1.0 ml blood was calculated and converted to percent of encapsulated dose. […] Total radioactivity in vivo was estimated by summing values for liver, spleen, total blood volume and carcass.

## C[C@]12CCC(=O)C=C1CC[C@@H]1[C@@H]2C(=O)C[C@@]2(C)[C@H]1CC[C@]2(O)C(=O)CO [free cortisone, cortisone]
[1]
  time to almost complete disappearance from cranial or spinal compartments: ≤ 2.8 h
  time to elimination from cerebrospinal fluid: ≤ 2.8 h

## CCC(=O)OCC(=O)[C@@]1(OC(=O)CC)[C@@H](C)C[C@H]2[C@@H]3CCC4=CC(=O)C=C[C@]4(C)[C@@]3(Cl)[C@@H](O)C[C@@]21C [BDP, beclomethasone dipropionate]
[2]; intratracheal instillation, listed as free BDP
  absorption from lungs (in words): rapid; also recorded: quickly removed from the lungs into plasma
[2]; compared with free drug
  plasma kinetics (in words): biphasic
[3]
  metabolism of BDP prior to leaving the lungs: no detectable metabolism of BDP prior to leaving the lungs
[4]
  BDP associated with the octanol (octanol/phosphate buffer saline partition): 95%
[5]
  apparent half-life in lungs (elimination of radiolabel already released, not absorption): 3.0 h
  drug absorbed before the first time point: over 98%
[5]; iv
  radiolabel removed/absorbed from the lungs: 99.7%
[6]
  secondary adverse reactions: localized infection of the mouth and pharynx with Candida albicans or Aspergillus niger, hoarseness and dry mouth

## C[C@H]1C[C@H]2[C@@H]3CCC4=CC(=O)C=C[C@]4(C)[C@@]3(Cl)[C@@H](O)C[C@]2(C)[C@@]1(O)C(=O)CO [Free beclomethasone, beclomethasone]
[7]
  persistence in plasma: disappears rapidly from the plasma
